The text below walks through data of US20080076824A1, “Compounds That Inhibit Replication Of Human Immunodeficiency Virus” (priority 2004, published 2008).

≈ marks a conversion by molar mass, not a printed value. Where two headings read alike, the source gives them in different places. Non-standard residues stand in square brackets, D forms with d. Residues, ends and D or L forms follow the SMILES beside them. pGlu = O=C1CC[C@@H](C(=O)O)N1

The subject of one data set is HIV-2 (EHO). How it is done:
(§1) Human T-lymphocytic CEM cells (4.5×10^5 cells per ml) were suspended in fresh cell culture medium and infected with HIV-1 (IIIB and NL4.3) or HIV-2 (ROD or EHO) at 100 CCID50 (1 CCID50 being the virus dose infective for 50% of the cell cultures) per ml of cell suspension. Then, 100 μl of the infected cell suspension were transferred to microplate wells, mixed with 100 μl of appropriate (freshly prepared) dilutions of the test compounds (i.e., at final concentrations of […]), and were further incubated at 37° C. After 4 to 5 days, giant cell formation was recorded microscopically in the CEM cell cultures.

Another data set has as its system HIV-1 (IIIB). The settings on record: in words.
Data set [1] deals with T1, CD26/dipeptidylpeptidase IV (Homo sapiens, UniProt P27487).
T1 construct: made in house; by own knowledge a natural human source (seminal plasma), not recombinant
T1 sequence (P27487 whole entry): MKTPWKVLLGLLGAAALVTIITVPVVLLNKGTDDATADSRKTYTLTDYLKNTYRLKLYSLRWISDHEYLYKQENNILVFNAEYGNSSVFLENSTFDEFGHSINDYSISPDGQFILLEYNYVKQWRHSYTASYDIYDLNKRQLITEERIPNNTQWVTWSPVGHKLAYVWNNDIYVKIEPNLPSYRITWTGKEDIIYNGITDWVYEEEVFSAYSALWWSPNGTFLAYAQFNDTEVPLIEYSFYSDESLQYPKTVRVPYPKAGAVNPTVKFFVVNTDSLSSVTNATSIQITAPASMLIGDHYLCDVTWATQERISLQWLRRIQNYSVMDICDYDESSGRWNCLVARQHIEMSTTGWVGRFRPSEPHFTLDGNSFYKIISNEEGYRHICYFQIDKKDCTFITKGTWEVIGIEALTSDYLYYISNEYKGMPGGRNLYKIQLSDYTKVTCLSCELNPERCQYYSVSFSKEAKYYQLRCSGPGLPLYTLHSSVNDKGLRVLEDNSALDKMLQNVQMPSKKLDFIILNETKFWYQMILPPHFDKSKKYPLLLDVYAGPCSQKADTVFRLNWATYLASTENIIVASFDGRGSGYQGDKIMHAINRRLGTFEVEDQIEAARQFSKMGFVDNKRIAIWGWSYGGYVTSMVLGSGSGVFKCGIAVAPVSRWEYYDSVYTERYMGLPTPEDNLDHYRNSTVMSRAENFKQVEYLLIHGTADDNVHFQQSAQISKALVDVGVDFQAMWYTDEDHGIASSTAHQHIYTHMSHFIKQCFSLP
In words: Conversion of GPG-NH2 to GP-OH and G-NH2 by purified CD26. Format: biochemical. How it is done:
In some experiments, approximately, 100 μM GPG-NH2 was exposed to 25 units/l of purified CD26 and the mixture was incubated for up to 400 minutes at room temperature. The lymphocyte surface glycoprotein CD26/dipeptidylpeptidase IV was purified as described before. (See De Meester, J. Immunol. Methods, 189:99-105 (1996), herein expressly incorporated by reference in its entirety). At different time points, an aliquot of the reaction mixture was withdrawn and analyzed on an electrospray ion trap mass spectrometer (Esquire, Bruker, Bremen, Germany). The appearance of the dipeptide GP-OH upon release from the amino terminal end of the GPG-NH2 molecule, as well as, the disappearance of intact GPG-NH2 from the reaction mixture was determined and monitored by electrospray ion trap mass spectometric analysis at different time points (See FIG. 3). Under these experimental conditions, CD26 released GP-OH in a time-dependent manner from GPG-NH2, and virtually completely converted GPG-NH2 to GP-OH and G-NH2 within 4 to 6 hrs of the reaction.
Next, the conversion of radiolabeled [^14C]GPG-NH2 to [^14C]G-NH2 by purified CD26, fetal bovine serum (FBS), human serum (HS) and CEM cell suspensions was analyzed. […] A variety of these [^14C]GPG-NH2 concentrations were exposed to purified CD26, FBS, HS and CEM cell suspensions and the conversion to G-NH2 was analyzed. […]

The subject of a further data set is HIV-2 (ROD). In words: microbe, parasite or virus in culture. Format: cell-based. The settings on record: 2 (ROD). How it is done:
as §1, with “cultures. […] (See Table 1).” for “cultures.”
MT-4, C8166 or CEM cells (4 to 5×10^5 cells per ml) were suspended in fresh culture medium (RPMI-1640 medium supplemented with 10% fetal bovine serum (FBS) (BioWittaker Europe, Verviers, Belgium), 2 mM L-glutamine and […] NaHCO3). Subsequently, the cells were infected with HIV-1 (IIIB) or HIV-2(ROD) at ˜100 CCID50 (1 CCID50 being the dose infective for 50% of the cell cultures) per ml of cell suspension. Then, 100 μl of the infected cell suspension were transferred to 96-well microplate wells, mixed with 100 μl of the appropriate (5-fold) dilutions of the test compounds and further incubated at 37° C. After 4 to 5 days, giant cell formation was recorded microscopically in the CEM and C8166 cell cultures. The MT-4 cell cultures were treated with trypan blue and the number of viable cells was determined.

A further data set in a line: in vitro. The settings on record: human.
For data set [2], the system named is Sindbis virus. In words: microbe, parasite or virus in culture. The settings on record: Vero, read-out: Minimum inhibitory concentration Sindbis virus.
The next data set concerns HEL cell cultures. The data set is described as follows: Cytotoxicity in HEL cell cultures (cell morphology). To be noted: alteration of normal cell morphology.
For data set [3], the system named is Punta Toro virus. In words: microbe, parasite or virus in culture. The settings on record: Vero, read-out: Minimum inhibitory concentration Punta Toro virus.
Data set [4] deals with Herpes simplex virus-2 (G). In words: microbe, parasite or virus in culture. To be noted: Human alphaherpesvirus 2, HEL, read-out: Minimum inhibitory concentration Herpes simplex virus-2 (G).
Data set [5] concerns Vesicular stomatitis virus. The data set is described as follows: microbe, parasite or virus in culture. To be noted: HeLa, read-out: Minimum inhibitory concentration Vesicular stomatitis virus.
Data set [6] deals with Herpes simplex virus-1 TK^− KOS ACV^r. In words: microbe, parasite or virus in culture. The settings on record: Human alphaherpesvirus 1, HEL, read-out: Minimum inhibitory concentration Herpes simplex virus-1 TK^− KOS ACV^r.
In data set [7] the test system is HeLa cell cultures. In words: Cytotoxicity in HeLa cell cultures (cell morphology). The settings on record: alteration of normal cell morphology.
Data set [8] relates to Vesicular stomatitis virus. The data set is described as follows: microbe, parasite or virus in culture. The settings on record: HEL, read-out: Minimum inhibitory concentration Vesicular stomatitis virus.
Data set [9] has as its system Parainfluenza-3 virus. The data set is described as follows: organism not typed. To be noted: Vero, read-out: Minimum inhibitory concentration Parainfluenza-3 virus.
Data set [10] deals with Vero cell cultures. The data set is described as follows: Cytotoxicity in Vero cell cultures (cell morphology). To be noted: alteration of normal cell morphology.
The test system of data set [11] is Reovirus-1. The data set is described as follows: organism not typed. The settings on record: Vero, read-out: Minimum inhibitory concentration Reovirus-1.
Data set [12] relates to Coxsackie virus B4. The data set is described as follows: Antiviral activity in Vero cell cultures, Coxsackie virus B4. Format: cell-based. How it is done:
(§2) The cytotoxicity and antiviral activity of various concentrations of G-NH2 and GPG-NH2 were evaluated in cell cultures that were infected with various types of viruses. Conventional host cell culture, viral infection, and infectivity analysis for each different type of cell and virus were followed. Compounds that were known to inhibit replication of the particular types of viruses analyzed were used as controls.

Data set [13] concerns Herpes simplex virus-1 (KOS). In words: microbe, parasite or virus in culture. The settings on record: Human alphaherpesvirus 1, HEL, read-out: Minimum inhibitory concentration Herpes simplex virus-1 (KOS).
Data set [14] has as its system Respiratory syncytial virus. The data set is described as follows: microbe, parasite or virus in culture. The settings on record: human respiratory syncytial virus, HeLa, read-out: Minimum inhibitory concentration Respiratory syncytial virus.
Data set [15] deals with Coxsackie virus B4. The data set is described as follows: Antiviral activity in HeLa cell cultures, Coxsackie virus B4. Format: cell-based. How it is done:
as §2

For the next data set, the system named is Vaccinia virus. The data set is described as follows: microbe, parasite or virus in culture. To be noted: Orthopoxvirus vaccinia, HEL, read-out: Minimum inhibitory concentration Vaccinia virus.
Data set [16] concerns the target T2, dipeptidylpeptidase activity associated with BS (Bos taurus, UniProt P81425).
T2 construct: from tissue; host or cells: fetal bovine serum
In words: Inhibition of dipeptidylpeptidase activity of fetal bovine serum (substrate GP-pNA). To be noted: read-out: 50% inhibitory concentration (IC50). Format: biochemical.

Data set [17] relates to Sindbis virus. The settings on record: Vero; reduces virus-induced cytopathogenicity by 50%. In general terms: Damage to the host cells serves as the signal in cytopathic effect assays.
Data set [18] deals with Punta Toro virus. To be noted: Vero; reduces virus-induced cytopathogenicity by 50%.
Data set [19] concerns Reovirus-1. To be noted: Vero; reduces virus-induced cytopathogenicity by 50%.
The subject of data set [20] is Vero cell cultures.
Data set [21] has as its system Respiratory syncytial virus. The settings on record: HeLa; reduces virus-induced cytopathogenicity by 50%.
Data set [22] deals with Parainfluenza-3 virus. To be noted: Vero; reduces virus-induced cytopathogenicity by 50%.
Data set [23] relates to Vesicular stomatitis virus. To be noted: HeLa; reduces virus-induced cytopathogenicity by 50%.
Data set [24] has as its system HeLa cell cultures.
Setting [25] is: Enterovirus B, B4, reduces virus-induced cytopathogenicity by 50%, read-out: Minimum inhibitory concentration Coxsackie virus B4.
[26] abbreviates: reduces virus-induced cytopathogenicity by 50%.

T2 sequence (P81425 38-765 limits assumed): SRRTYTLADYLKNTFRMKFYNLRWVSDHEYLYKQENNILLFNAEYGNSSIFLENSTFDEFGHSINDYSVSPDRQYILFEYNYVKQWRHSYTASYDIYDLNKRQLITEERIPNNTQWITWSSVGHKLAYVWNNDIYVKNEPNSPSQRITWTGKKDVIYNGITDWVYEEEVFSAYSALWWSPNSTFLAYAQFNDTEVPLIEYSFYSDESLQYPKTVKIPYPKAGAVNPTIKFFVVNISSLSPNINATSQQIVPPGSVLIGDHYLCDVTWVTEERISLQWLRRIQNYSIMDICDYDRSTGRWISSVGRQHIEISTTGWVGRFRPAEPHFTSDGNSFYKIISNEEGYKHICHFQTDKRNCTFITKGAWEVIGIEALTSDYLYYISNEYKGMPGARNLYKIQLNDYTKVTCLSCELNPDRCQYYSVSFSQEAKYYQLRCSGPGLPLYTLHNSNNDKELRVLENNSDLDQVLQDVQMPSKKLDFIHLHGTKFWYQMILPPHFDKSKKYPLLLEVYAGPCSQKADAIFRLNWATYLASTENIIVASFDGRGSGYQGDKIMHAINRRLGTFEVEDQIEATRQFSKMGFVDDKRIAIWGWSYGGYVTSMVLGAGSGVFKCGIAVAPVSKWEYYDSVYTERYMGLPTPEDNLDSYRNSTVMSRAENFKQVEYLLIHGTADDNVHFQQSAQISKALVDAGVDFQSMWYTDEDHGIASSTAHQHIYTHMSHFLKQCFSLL

In the case of `NC(=O)CNC(=O)[C@@H]1CCCN1C(=O)[C@@H]1CCC(=O)N1` [PyrQ-PG-NH2, cyclic pyrroglutaminylprolylglycinamide] ([pGlu]-Pro-Gly-NH2), the EC50 with HIV-2 (EHO), in the data set with HIV-2 (ROD) and in the data set “in vitro” was over 2 mM each time. Also, the “inhibition of HIV replication in cell culture” value in the data set with HIV-1 (IIIB) was “ineffective”. Further, the “release of G-NH2 by CD26” value in [1] is recorded as “unable to release G-NH2”.
On to `O=c1[nH]c(=O)n([C@H]2C[C@H](O)[C@@H](CO)O2)cc1/C=C/Br` [BVDU], for which the EC50 is over 400 µg/mL with Sindbis virus [2]; over 400 µg/mL with Punta Toro virus [3]; over 400 µg/mL in [4]; over 400 µg/mL in [5]; 400 µg/mL (≈ 1200 µM) in data set [6]; 400 µg/mL (≈ 1200 µM) in data set [8]. The EC50 was over 400 µg/mL with Parainfluenza-3 virus [9]; over 400 µg/mL in the data set with Reovirus-1 [11]; over 400 µg/mL with Coxsackie virus B4 [12] (setting [25]); 0.0256 µg/mL (≈ 0.0768 µM) in [13]; over 400 µg/mL in data set [14]; over 400 µg/mL in the data set with Coxsackie virus B4 [15] (setting [25]). For the same molecule, in the data set with Vaccinia virus, the EC50 came to 0.64 µg/mL (≈ 1.92 µM). Moreover, the “Minimum cytotoxic concentration” value in the data set with HEL cell cultures was over 400 µg/mL; with HeLa cell cultures [7], “≧400 μg/ml”; in the data set with Vero cell cultures [10] it was over 400 µg/mL.
Regarding `CCC(C)C(N)C(=O)N1CCCC1` [IlePyr, L-isoleucinepyrrolidine], the IC50 in [16] is 0.099 mM.
As for `Nc1ncnc2c1ncn2C[C@H](O)CO` [(S)-DHPA, reference compound], the “Minimum inhibitory concentration Sindbis virus” value in the data set on Sindbis virus [17] is over 400 µg/mL. In the data set on Punta Toro virus [18], the “Minimum inhibitory concentration Punta Toro virus” value was over 400 µg/mL. The “Minimum inhibitory concentration Reovirus-1” value in the data set on Reovirus-1 [19] came out at 80 µg/mL (≈ 382 µM). In addition, the Minimum cytotoxic concentration in the data set on Vero cell cultures [20] and in the data set with HeLa cell cultures [24] was over 400 µg/mL throughout. In addition, the “Minimum inhibitory concentration Respiratory syncytial virus” value in [21] was over 400 µg/mL. Moreover, the “Minimum inhibitory concentration Coxsackie virus B4” value with Coxsackie virus B4 [12] (setting [26]) and in the data set on Coxsackie virus B4 [15] (setting [26]) was over 400 µg/mL throughout. Further, in the data set with Parainfluenza-3 virus [22], the “Minimum inhibitory concentration Parainfluenza-3 virus” value is 240 µg/mL (≈ 1150 µM). In addition, the “Minimum inhibitory concentration Vesicular stomatitis virus” value in data set [23] was 240 µg/mL (≈ 1150 µM).
